Measurements as given in US8962627B2, “Oxime derivatives and their use as allosteric modulators of metabotropic glutamate receptors” (Prestwick Chemical, Inc., priority 2009, dated 2015).
pEC50: −log10 of the molar value. Where a name gives a salt, the structure may show the parent alone.

How the values were obtained:
[1] = target: T1, human mGluR4 transiently over-expressed in HEK-293 cells (Homo sapiens, UniProt Q14833); test: Human mGluR4 positive allosteric modulator evaluation using Ca++ functional assay; format: cell-based; details: HEK-293 cells co-transfected with hmGluR4 and chimeric G protein; EC10 glutamate; intracellular calcium (Fluo4AM); read-out: mean EC50 of agonist/positive allosteric modulator activity on mGluR4
T1 construct: expressed in transfected cells; host or cells: HEK-293 cells, transient co-transfection by electroporation
Protocol: Human mGluR4 Positive Allosteric Modulator Evaluation Using Ca^++ Functional Assay
Compounds of the present invention were tested successively for their agonist and positive allosteric modulator activities on human mGluR4 transiently over-expressed in HEK-293 cells. They exert agonist activity if, by themselves in absence of the endogenous glutamate, they are able to activate mGluR4; and they exert positive allosteric modulator activity if they increase the action of the endogenous glutamate.
Cell Culture and Transfection
HEK-293 cells were maintained in Modified Eagle's Medium supplemented with 10% Foetal Calf Serum, 1% Penicillin/Streptomycin and 1% non essential amino acids at 37° C./5% CO2.
Cells were co-transfected by electroporation with two DNA plasmids encoding hmGluR4 and a chimeric G protein allowing redirection of the activation signal to intracellular calcium pathway. Cells were plated after transfection onto polyornithine coated, clear bottom, black-walled, 96-well plates and cultured for 24 h.
Calcium Assay EC50 Determination
Receptor activity was detected by changes in intracellular calcium measured using the fluorescent Ca^2+ sensitive dye, Fluo4AM (Molecular Probes).
The day of the assay, medium was aspirated and replaced during 3 hours by medium without serum supplemented with 1% Glutamax, 1% Penicillin/Streptomycin and 1% non essential amino acids. Then, cells were washed with freshly prepared buffer B (HBSS 1×(PAA), Hepes 20 mM, MgSO4-7H2O 1 mM, Na2CO3 3.3 mM, CaCl2-2H2O 1.3 mM, 0.5% BSA, Probenecid 2.5 mM) and loaded at 37° C. in 5% CO2 for 1.5 hours with buffer B containing 1 μM Fluo4AM 0.1 mg/mL Pluronic Acid, 7 μg/mL Glutamate Pyruvate Transaminase and 2 mM sodium pyruvate. Afterwards cells were washed twice with buffer B and 50 μL of this buffer were added to each well. Addition of compounds and intracellular Ca^2+ measurements (excitation 485 nm, emission 525 nm) were performed by the fluorescence microplate reader FlexStation (Molecular Devices).
Agonist and positive allosteric modulator activities of compounds were consecutively evaluated on the same cells plate. Agonist activity was first tested during 60 s with the addition of compound alone on the cells. Then, the cells were stimulated by an EC10 glutamate concentration and fluorescence recorded for additional 60 s. EC10 glutamate concentration is the concentration giving 10% of the maximal glutamate response. Agonist and/or positive allosteric modulator activity(ies) were evaluated in comparison to basal signal evoked by EC10 glutamate alone.
For EC50 determination, a dose-response test was performed using 6 to 9 concentrations of each compound of the invention. Dose-response curves were fitted using the sigmoidal dose-response (variable slope) analysis in GraphPad Prism program (Graph Pad Inc) and EC50 of agonist/positive allosteric modulator activity was calculated. Dose-response experiments were all performed in duplicate, two times independently.

T1 sequence (Q14833 33-912): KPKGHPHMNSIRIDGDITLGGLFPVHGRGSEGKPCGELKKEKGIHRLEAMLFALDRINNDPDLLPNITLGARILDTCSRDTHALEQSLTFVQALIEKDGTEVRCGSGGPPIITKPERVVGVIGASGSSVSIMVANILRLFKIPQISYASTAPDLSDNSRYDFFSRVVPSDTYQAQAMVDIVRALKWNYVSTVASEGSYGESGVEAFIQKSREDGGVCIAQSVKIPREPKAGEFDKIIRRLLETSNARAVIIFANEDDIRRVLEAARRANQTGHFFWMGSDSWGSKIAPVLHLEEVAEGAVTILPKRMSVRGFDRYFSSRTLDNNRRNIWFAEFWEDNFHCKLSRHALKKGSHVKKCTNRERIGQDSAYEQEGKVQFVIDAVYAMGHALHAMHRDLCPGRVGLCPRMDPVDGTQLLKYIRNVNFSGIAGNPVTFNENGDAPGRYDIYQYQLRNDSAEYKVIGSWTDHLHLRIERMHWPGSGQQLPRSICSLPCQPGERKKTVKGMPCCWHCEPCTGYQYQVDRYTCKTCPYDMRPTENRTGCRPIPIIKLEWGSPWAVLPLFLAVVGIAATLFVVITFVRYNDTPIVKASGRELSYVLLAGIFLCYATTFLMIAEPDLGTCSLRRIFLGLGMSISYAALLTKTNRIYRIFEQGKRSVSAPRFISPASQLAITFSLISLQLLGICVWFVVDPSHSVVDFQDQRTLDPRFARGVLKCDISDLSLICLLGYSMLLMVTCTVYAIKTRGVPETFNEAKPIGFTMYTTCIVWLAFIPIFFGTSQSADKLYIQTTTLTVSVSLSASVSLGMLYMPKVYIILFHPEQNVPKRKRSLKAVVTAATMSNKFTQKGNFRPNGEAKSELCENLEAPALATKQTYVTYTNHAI

pEC50 [1] | melting point | Compound
> 6.00 | > 235 °C (dec.) | Cl.Cl.ON=c1cc(-c2cc3cccn3cn2)oc2ccc(OCCN3CCC(N4CCCCC4)CC3)cc12 [Example 116, 6-(2-[1,4′]bipiperidinyl-1′-yl-ethoxy)-2-pyrrolo[1,2-c]pyrimidin-3-yl-chromen-4-one oxime, dihydrochloride]
> 5.30 | 198 to 200 °C | C=Cc1ccc2oc(-c3cc4ccccc4cn3)cc(=NO)c2c1 [Example 36, 2-isoquinolin-3-yl-6-(vinyl)-chromen-4-one oxime]
> 6.00 | > 230 °C (dec.) | Cl.ON=c1cc(-c2cc3sccc3cn2)oc2ccc(OCCN3CCOCC3)cc12 [Example 127, 6-(2-Morpholin-4-yl-ethoxy)-2-thieno[3,2-c]pyridin-6-yl-chromen-4-one oxime, hydrochloride]
> 5.30 | 158 to 160 °C | COCCOCC#Cc1ccc2c(=NO)cc(-c3cc4ccccc4cn3)oc2c1 (mixture of isomers) [Example 54, 2-Isoquinolin-3-yl-7-[3-(2-methoxy-ethoxy)-prop-1-ynyl]-chromen-4-one oxime]
> 5.30 | 245 to 247 °C | ON=c1cc(-c2cc3ccccc3cn2)oc2ccc(C(F)(F)F)cc12 (mixture of isomers) [Example 11, 2-isoquinolin-3-yl-6-trifluoromethyl-chromen-4-one oxime]
> 5.30 | 255 to 260 °C | ON=c1cc(-c2cc3ccccc3cn2)oc2ccc(O)cc12 (mixture of isomers) [Example 41, 6-hydroxy-2-isoquinolin-3-yl-chromen-4-one oxime]
> 5.30 | 238 to 240 °C | OCCC#Cc1ccc2c(=NO)cc(-c3cc4ccccc4cn3)oc2c1 (mixture of isomers) [Example 52, 7-(4-Hydroxy-but-1-ynyl)-2-isoquinolin-3-yl-chromen-4-one oxime]
> 6.00 | 258 to 260 °C | Cl.ON=c1cc(-c2cc3ccsc3cn2)oc2ccc(OCCN3CCOCC3)cc12 [Example 158, 6-(2-Morpholin-4-yl-ethoxy)-2-thieno[2,3-c]pyridin-5-yl-chromen-4-one oxime, hydrochloride]
> 6.00 | > 210 °C (dec.) | CN1CCCN(CCOc2ccc3oc(-c4cc5cccn5cn4)cc(=NO)c3c2)CC1.Cl.Cl [Example 94, 6-[2-(4-methyl-[1,4]diazepan-1-yl)-ethoxy]-2-pyrrolo[1,2-c]pyrimidin-3-yl-chromen-4-one oxime, dihydrochloride]
> 5.30 | 244 to 245 °C | ON=c1cc(-c2cc3cc(Br)cn3cn2)oc2ccccc12 [Example 65, 2-(6-bromo-Pyrrolo[1,2-c]pyrimidin-3-yl)-chromen-4-one oxime]
> 6.00 | 198 to 204 °C | COCCOc1ccc2oc(-c3cc4ccccc4cn3)cc(=NO)c2c1 (mixture of isomers) [Example 43, 2-isoquinolin-3-yl-6-(2-methoxy-ethoxy)-chromen-4-one oxime]
> 6.00 | 225 to 230 °C | Cl.ON=c1cc(-c2cn3cccc3cn2)oc2ccc(OCCN3CCC(F)(F)CC3)cc12 [Example 124, 6-[2-(4,4-Difluoro-piperidin-1-yl)-ethoxy]-2-pyrrolo[1,2-a]pyrazin-3-yl-chromen-4-one oxime, hydrochloride]
> 6.00 | 272 to 275 °C | ON=c1cc(-c2cc3sccc3cn2)oc2ccccc12 [Example 70, 2-Thieno[3,2-c]pyridin-6-yl-chromen-4-one oxime]
> 6.00 | 210 to 215 °C | Cl.ON=c1cc(-c2cc3cccn3cn2)oc2ccc(OCCCc3ccncc3)cc12 [Example 159, 6-(3-Pyridin-4-yl-propoxy)-2-pyrrolo[1,2-c]pyrimidin-3-yl-chromen-4-one oxime, hydrochloride]
> 5.30 | 250 to 254 °C | ON=c1cc(-c2cc3ccccc3cn2)oc2ccc(OC(F)(F)F)cc12 (mixture of isomers) [Example 10, 2-isoquinolin-3-yl-6-trifluoromethoxy-chromen-4-one oxime]
> 5.30 |  | CC1CCCN1CCOc1ccc2oc(-c3cc4cccn4cn3)cc(=NO)c2c1 (stereo not shown) [Example 92, 6-[2-(2-methyl-pyrrolidin-1-yl)-ethoxy]-2-pyrrolo[1,2-c]pyrimidin-3-yl-chromen-4-one oxime, hydrochloride]
> 6.00 |  | ON=c1cc(-c2cc3cccn3cn2)oc2ccc(OCCn3ccnc3)cc12 [Example 105, 6-(2-imidazol-1-O-ethoxy)-2-pyrrolo[1,2-c]pyrimidin-3-yl-chromen-4-one oxime]
> 5.30 |  | ON=c1cc(-c2cc3cccn3cn2)oc2ccc(Br)cc12 (mixture of isomers) [Example 66, 6-bromo-2-Pyrrolo[1,2-c]pyrimidin-3-yl-chromen-4-one oxime]
> 6.00 |  | ON=c1cc(-c2cc3cccn3cn2)oc2ccc(OCCCOc3ccccc3)cc12 [Example 162, 6-(3-Phenoxy-propoxy)-2-pyrrolo[1,2-c]pyrimidin-3-yl-chromen-4-one oxime]
> 5.30 |  | COn1ccc2cc(-c3cc(=NO)c4ccccc4o3)ncc21 [Example 78, 2-(1-Methoxy-1H-pyrrolo[2,3-c]pyridin-5-yl)-chromen-4-one oxime]
> 5.30 |  | ON=c1cc(-c2cc3ccccc3cn2)oc2cc(CCc3ccccc3)ccc12 (mixture of isomers) [Example 22, 2-isoquinolin-3-yl-7-phenethyl-chromen-4-one oxime]
> 6.00 |  | ON=c1cc(-c2cc3cccn3cn2)oc2cc(OCCN3CCOCC3)ccc12 [Example 142, 7-(2-Morpholin-4-yl-ethoxy)-2-pyrrolo[1,2-c]pyrimidin-3-yl-chromen-4-one oxime, hydrochloride]
> 6.00 |  | ON=c1cc(-c2cc3cccn3cn2)oc2ccc(/C=C\CN3CCOCC3)cc12 [Example 107]
> 6.00 |  | ON=c1cc(-c2cc3cccn3cn2)oc2cc(OCCCN3CCOCC3)ccc12 [Example 143, 7-(3-Morpholin-4-yl-propoxy)-2-pyrrolo[1,2-c]pyrimidin-3-yl-chromen-4-one oxime hydrochloride]
> 5.30 |  | ON=c1cc(-c2cc3cccn3cn2)oc2cccc(OCCCN3CCOCC3)c12 [Example 157, 5-(3-Morpholin-4-yl-propoxy)-2-pyrrolo[1,2-c]pyrimidin-3-yl-chromen-4-one oxime, hydrochloride]
> 6.00 |  | C#Cc1ccc2c(=NO)cc(-c3cc4ccccc4cn3)oc2c1 (mixture of isomers) [Example 23, 7-ethynyl-2-isoquinolin-3-yl-chromen-4-one oxime]
> 6.00 |  | C[C@@H]1CN(CCOc2ccc3oc(-c4cc5cccn5cn4)cc(=NO)c3c2)C[C@H](C)O1 [Example 112, 6-[2-(cis-2,6-dimethyl-morpholin-4-yl)-ethoxy]-2-pyrrolo[1,2-c]pyrimidin-3-yl-chromen-4-one oxime, hydrochloride]
> 6.00 |  | O=C(COc1ccc2oc(-c3cc4cccn4cn3)cc(=NO)c2c1)Nc1ccc(F)cc1 [Example 150, N-(4-Fluoro-phenyl)-2-{4-hydroxyimino-2-pyrrolo[1,2-c]pyrimidin-3-yl-4H-chromen-6-yloxy}-acetamide]
